Assay results from patent US7829080B2, “Stabilization method of reduced coenzyme Q10” (Kaneka Corporation, priority 2006, dated 2010).

Tests used:
[1] = Plasma total coenzyme Q after 14-day oral administration (Example 3); format: in vivo, Crj:CD (SD) rats; conditions: male and female rats, 600 mg/kg oral in corn oil once a day for 14 days, 24 hr after final administration; compared to the reduced coenzyme Q10 administration group
Description: A first group was used as a control group, and corn oil (3 ml/kg) was orally administered once a day for 14 days. […] At 24 hr after the final administration, blood samples were collected to give plasma samples. Using HPLC, the concentration of coenzyme Q in the obtained plasma was measured. The results are shown in the bar graph of FIG. 1.

[2] = Oral absorbability test (Example 4); format: in vivo, Crj:CD (SD) rats; conditions: male rats, 25 mg/ml soy bean oil solution at 4.0 ml/kg, 2 hr from administration
Description: Crj:CD (SD) rats (about 77-week-old, 10 male rats) were prepared. Reduced coenzyme Q10 was orally administered to 5 of them, and a mixture of reduced coenzyme Q10 and reduced coenzyme Q11 (containing 0.1% of reduced coenzyme Q11) was orally administered to the remaining 5 of them, each as a 25 mg/ml soy bean oil solution at a dose of 4.0 ml/kg. At 2 hr from the administration, blood was drawn and centrifuged to give plasma samples. Using HPLC, the concentration of coenzyme Q10 in the obtained plasma was measured. The results are shown in the bar graph of FIG. 2. As is clear from FIG. 2, the concentration of coenzyme Q10 in the plasma was about 3.4 μg/ml resulting from the administration of both reduced coenzyme Q10 and a mixture of reduced coenzyme Q10 and reduced coenzyme Q11.

| Compound | concentration of total coenzyme Q in the plasma [1] | concentration of coenzyme Q10 in the plasma [2] |
| --- | --- | --- |
| COc1c(O)c(C)c(C/C=C(\C)CC/C=C(\C)CC/C=C(\C)CC/C=C(\C)CC/C=C(\C)CC/C=C(\C)CC/C=C(\C)CC/C=C(\C)CCC=C(C)C)c(O)c1OC [reduced coenzyme Q9] | increased | – |
| COc1c(O)c(C)c(C/C=C(\C)CC/C=C(\C)CC/C=C(\C)CC/C=C(\C)CC/C=C(\C)CC/C=C(\C)CC/C=C(\C)CC/C=C(\C)CC/C=C(\C)CCC=C(C)C)c(O)c1OC [reduced coenzyme Q10] | – | about 3.4 μg/ml |
